Laboratory results as given in patent publication US12509482B2, “3′-ketoglycoside compound for the slow release of a volatile alcohol” (GLYCOSCIENCE, S.L., priority 2020, dated 2025).
Blank lines part the entries; values can stand above or below the compound they belong to.

Legend:
Type in all cases: physicochemical
[1] = Example 18: release of picaridin from 250 μM picaridin-O-β-D-3′-ketoglucopyranoside in different pH aqueous buffers, 32° C., UPLC
Method: In this example the rate of release of picaridin from a solution of sec-butyl 2-(2-(((2R,3S,5R,6R)-3,5-dihydroxy-6-(hydroxymethyl)-4-oxotetrahydro-2H-pyran-2-yl)oxy)ethyl)piperidine-1-carboxylate (picaridin-O-β-D-3′-ketoglucopyranoside) different pH aqueous buffers was determined.
Parallel mixtures containing 250 μM picaridin-O-β-D-3′-ketoglucopyranoside in 0.05M K2HPO4 0.95M/KH2PO4, pH=8.5 buffer (Reaction 1), 0.17M Na2HPO4/0.02M citric acid, pH=7 buffer (Reaction 2), 0.12M Na2HPO4/0.04M citric acid buffer, pH=5.8 (Reaction 3) and 0.04M sodium citrate/0.06M citric acid buffer, pH=4 (Reaction 4) were incubated at 32° C. Aliquots of 10 μl were periodically taken, diluted with MeCN (90 μl) and analysed by UPLC using the following instrument and conditions: • Stationary phase: Acquity UPLC® BEH C18 1.7 μm (2.1 mm×50 mm) (Waters) • Mobile phase: A: water+0.1% formic acid; B: acetonitrile+0.1% formic acid • The chromatographic equipment employed was an UPLC QSM Waters Acquity. • Gradient conditions:
• Flow Rate(mL/min) 0.6 • Source Temperature (° C.) 150 • Desolvation Temperature (° C.) 500 • Cone Gas Flow (L/Hr) 50 • Desolvation Gas Flow (L/Hr) 900 • Target Column Temperature 35° C.
Target Sample Temperature 8.0° C.

[2] = Example 26: release of geraniol from 2′,6′-diacetyl-geranyl-O-β-D-3′-ketoglucopyranoside, 0.1 M deuterated phosphate buffer, 50% D6-DMSO, 32° C.
Method: In this example the rate of release of geraniol from (((2R,3R,5S)-5-acetoxy-6-(((E)-3,7-dimethylocta-2,6-dien-1-yl)oxy)-3-hydroxy-4-oxotetrahydro-2H-pyran-2-yl)methyl acetate (2′,6′-Diacetyl-geranyl-O-β-D-3′-ketoglucopyranoside) in 0.1 M deuterated phosphate buffer solutions of differing pH containing 50% D6-DMSO was determined.
(§1) 0.1 M of pH 5.8 and 7.4 stock buffered solutions of sodium dihydrogen phosphate and disodium hydrogen phosphate were prepared in deuterated water (D2O).
A stock solution of 15 mg of 2′,6′-diacetyl-geranyl-O-β-D-3′-ketoglucopyranoside in 1.5 mL of D6-DMSO were prepared.
(§2) To two parallel reaction vials, where indicated in the reaction table below, was added 0.35 mL of the glycoside substrate solutions in D6-DMSO and 0.35 mL of low or high pH 0.1M phosphate buffer in D2O and the mixtures incubated by shaking at 32° C. After times indicated in table below, the mixtures where analysed by ^1H-NMR in a 400 MHz instrument.

[3] = Example 14: release of eugenol from eugenyl-O-β-D-3′-ketoglucopyranoside, 0.1 M deuterated phosphate buffer or D2O, 33% D6-DMSO, 32° C.
Method: In this example the rate of release of eugenol from (2S,3S,5R,6R)-2-(4-allyl-2-methoxyphenoxy)-3,5-dihydroxy-6-(hydroxymethyl)tetrahydro-4H-pyran-4-one (eugenyl-O-β-D-3′-ketoglucopyranoside) in 0.1 M deuterated phosphate buffer solutions of differing pH containing 33% D6-DMSO was determined.
as §1
A stock solution of 15 mg of eugenyl-O-β-D-3′-ketoglucopyranoside in 1.0 mL of D6-DMSO were prepared.
(§3) To three parallel reaction vials, where indicated in the reaction table below, was added 0.20 mL of the glycoside substrate solutions in D6-DMSO and 0.40 mL of low or high pH 0.1M phosphate buffer in D2O or D2O and the mixtures incubated by shaking at 32° C. After times indicated in table below, the mixtures where analysed by ^1H-NMR in a 400 MHz instrument.

[4] = Example 27: release of phenol from 2′,6′-diacetyl-phenyl-O-β-D-3′-ketoglucopyranoside, 0.1 M deuterated phosphate buffer or D2O, 33% D6-DMSO, 32° C.
Method: as §1
A stock solution of 25 mg of 2′,6′-diacetyl-phenyl-O-β-D-3′-ketoglucopyranoside in 1.0 mL of D6-DMSO were prepared.
as §3, with “D2O” for “D2O or D2O”

[5] = Example 19: release of cis-PMD from cis-PMD-O-β-D-3′-ketoglucopyranoside, 0.1 M deuterated phosphate buffer, 33% D6-DMSO, 32° C.
Method: In this example the rate of release of cis-PMD from (2R,3R,5S)-3,5-dihydroxy-2-(hydroxymethyl)-6-((5-(2-hydroxypropan-2-yl)-2-methylcyclohexyl)oxy)tetrahydro-4H-pyran-4-one (cis-PMD-O-β-D-3′-ketoglucopyranoside) in 0.1 M deuterated phosphate buffer solutions of differing pH containing 33% D6-DMSO was determined. 0.1 M of pH 5.8 and 7.4 stock buffered solutions of sodium dihydrogen phosphate and disodium hydrogen phosphate were prepared in deuterated water (D2O).
A stock solution of 10 mg of cis-PMD-O-β-D-3′ketoglucopyranoside in 0.5 mL of D6-DMSO were prepared.
as §2, with “added 0.20” for “added 0.35”, “and […]” for “and 0.35”

Compound: CCC(C)OC(=O)N1CCCCC1CCO[C@@H]1O[C@H](CO)[C@@H](O)C(=O)[C@H]1O (stereo partly drawn) [picaridin-O-β-D-3′-ketoglucopyranoside, sec-butyl 2-(2-(((2R,3S,5R,6R)-3,5-dihydroxy-6-(hydroxymethyl)-4-oxotetrahydro-2H-pyran-2-yl)oxy)ethyl) piperidine-1-carboxylate]
- pH dependence of degradation (in words) ([1]; 32° C.): degraded at increasing rate between pH 4 and pH 8.5
- Picaridin released ([1]; Reaction 1, pH=8.5 buffer, 0 h): 1 µM
- Picaridin released ([1]; Reaction 1, pH=8.5 buffer, 7 h): 2 µM
- Picaridin released ([1]; Reaction 1, pH=8.5 buffer, 24 h): 7 µM
- Picaridin released ([1]; Reaction 1, pH=8.5 buffer, 50 h): 15 µM
- Picaridin released ([1]; Reaction 2, pH=7 buffer, 0 h): 1 µM
- Picaridin released ([1]; Reaction 2, pH=7 buffer, 7 h): 1 µM
- Picaridin released ([1]; Reaction 2, pH=7 buffer, 24 h): 2 µM
- Picaridin released ([1]; Reaction 2, pH=7 buffer, 50 h): 4 µM
- Picaridin released ([1]; Reaction 3, pH=5.8 buffer, 0 h): 0.25 µM
- Picaridin released ([1]; Reaction 3, pH=5.8 buffer, 7 h): 0.75 µM
- Picaridin released ([1]; Reaction 3, pH=5.8 buffer, 24 h): 1 µM
- Picaridin released ([1]; Reaction 3, pH=5.8 buffer, 50 h): 2 µM
- Picaridin released ([1]; Reaction 4, pH=4 buffer, 0 h): 0.25 µM
- Picaridin released ([1]; Reaction 4, pH=4 buffer, 7 h): 0.75 µM
- Picaridin released ([1]; Reaction 4, pH=4 buffer, 24 h): 1 µM
- Picaridin released ([1]; Reaction 4, pH=4 buffer, 50 h): 1.75 µM

Compound: CC(=O)OC[C@H]1O[C@@H](OC/C=C(\C)CCC=C(C)C)[C@H](OC(C)=O)C(=O)[C@@H]1O [((2R,3R,5S,6R)-5-acetoxy-6-(((E)-3,7-dimethylocta-2,6-dien-1-yl)oxy)-3-hydroxy-4-oxotetrahydro-2H-pyran-2-yl)methyl acetate]
- geraniol release (in words) ([2]; 32° C.): generates geraniol at both pH 5.8 and pH 7.4
- % Conversion by 1H-NMR ([2]; pH 5.8, 0 h): 0%
- % Conversion by 1H-NMR ([2]; pH 5.8, 5 h): 10%
- % Conversion by 1H-NMR ([2]; pH 5.8, 24 h): 20%
- % Conversion by 1H-NMR ([2]; pH 5.8, 48 h): 39%
- % Conversion by 1H-NMR ([2]; pH 5.8, 120 h): 43%
- % Conversion by 1H-NMR ([2]; pH 5.8, 480 h): 92%
- % Conversion by 1H-NMR ([2]; pH 5.8, column head 19 (between 120 h and 480 h)): 62%
- % Conversion by 1H-NMR ([2]; pH 7.4, 0 h): 0%
- % Conversion by 1H-NMR ([2]; pH 7.4, 5 h): 6%
- % Conversion by 1H-NMR ([2]; pH 7.4, 24 h): 25%
- % Conversion by 1H-NMR ([2]; pH 7.4, 48 h): 33%
- % Conversion by 1H-NMR ([2]; pH 7.4, 120 h): 37%
- % Conversion by 1H-NMR ([2]; pH 7.4, 480 h): 85%
- % Conversion by 1H-NMR ([2]; pH 7.4, column head 19 (between 120 h and 480 h)): 55%

- % Conversion by 1H-NMR ([3]; D2O, 1 h): 3%
- % Conversion by 1H-NMR ([3]; D2O, 5 h): 3%
- % Conversion by 1H-NMR ([3]; D2O, 23 h): 5%
- % Conversion by 1H-NMR ([3]; D2O, 69 h): 10%
- % Conversion by 1H-NMR ([3]; pH 5.8, 1 h): 3%
- % Conversion by 1H-NMR ([3]; pH 5.8, 5 h): 3%
- % Conversion by 1H-NMR ([3]; pH 5.8, 23 h): 5%
- % Conversion by 1H-NMR ([3]; pH 5.8, 69 h): 5%
- % Conversion by 1H-NMR ([3]; pH 7.4, 1 h): 3%
- % Conversion by 1H-NMR ([3]; pH 7.4, 5 h): 8%
- % Conversion by 1H-NMR ([3]; pH 7.4, 23 h): 60%
- % Conversion by 1H-NMR ([3]; pH 7.4, 69 h): 80%
Compound: C=CCc1ccc(O[C@@H]2O[C@H](CO)[C@@H](O)C(=O)[C@H]2O)c(OC)c1 [eugenyl-O-β-D-3′-ketoglucopyranoside, (2S,3S,5R,6R)-2-(4-allyl-2-methoxyphenoxy)-3,5-dihydroxy-6-(hydroxymethyl)tetrahydro-4H-pyran-4-one]
- pH dependence of eugenol release (in words) ([3]; 32° C.): only slowly degraded at pH 5.8, but releases eugenol at a significantly higher rate at pH 7.4

Compound: CC(=O)OC[C@H]1O[C@@H](Oc2ccccc2)[C@H](OC(C)=O)C(=O)[C@@H]1O [((2R,3R,5S,6S)-5-acetoxy-3-hydroxy-4-oxo-6-phenoxytetrahydro-2H-pyran-2-yl)methyl acetate]
- phenol release (in words) ([4]; 32° C.): generates phenol at both pH 5.8 and pH 7.4 and in D2O
- % Conversion by 1H-NMR ([4]; D2O, 0 h): 0%
- % Conversion by 1H-NMR ([4]; D2O, 4 h): 0%
- % Conversion by 1H-NMR ([4]; D2O, 22 h): 10%
- % Conversion by 1H-NMR ([4]; D2O, 70 h (printed under the 52 h column)): 21%
- % Conversion by 1H-NMR ([4]; pH 5.8, 0 h): 14%
- % Conversion by 1H-NMR ([4]; pH 5.8, 4 h): 18%
- % Conversion by 1H-NMR ([4]; pH 5.8, 22 h): 24%
- % Conversion by 1H-NMR ([4]; pH 5.8, 52 h): 26%
- % Conversion by 1H-NMR ([4]; pH 5.8, 120 h): 36%
- % Conversion by 1H-NMR ([4]; pH 5.8, 432 h): 54%
- % Conversion by 1H-NMR ([4]; pH 7.4, 0 h): 19%
- % Conversion by 1H-NMR ([4]; pH 7.4, 4 h): 43%
- % Conversion by 1H-NMR ([4]; pH 7.4, 22 h): 74%
- % Conversion by 1H-NMR ([4]; pH 7.4, 52 h): 81%
- % Conversion by 1H-NMR ([4]; pH 7.4, 120 h): 93%
- % Conversion by 1H-NMR ([4]; pH 7.4, 432 h): 100%

- % Conversion by 1H-NMR ([5]; pH 5.8, 0 h): 0%
- % Conversion by 1H-NMR ([5]; pH 5.8, 3 h): 0%
- % Conversion by 1H-NMR ([5]; pH 5.8, 20 h): 0%
- % Conversion by 1H-NMR ([5]; pH 5.8, 95 h): <5%
- % Conversion by 1H-NMR ([5]; pH 7.4, 0 h): 0%
- % Conversion by 1H-NMR ([5]; pH 7.4, 3 h): 12%
- % Conversion by 1H-NMR ([5]; pH 7.4, 20 h): 39%
- % Conversion by 1H-NMR ([5]; pH 7.4, 95 h): 45%
- % Conversion by 1H-NMR ([5]; pH 7.4, 167 h): 85%
Compound: C[C@@H]1CC[C@@H](C(C)(C)O)C(O[C@@H]2O[C@H](CO)[C@@H](O)C(=O)[C@H]2O)C1 (mixture of isomers) [cis-PMD-O-β-D-3′-ketoglucopyranoside, (2R,3R,5S,6R)-3,5-dihydroxy-2-(hydroxymethyl)-6-(((1S,2R,5R)-2-(2-hydroxypropan-2-yl)-5-methylcyclohexyl)-oxy)tetrahydro-4H-pyran-4-one]
- pH dependence of cis-PMD release (in words) ([5]; 32° C.): only slowly degraded at pH 5.8, but releases cis-PMD at a significantly higher rate at pH 7.4
